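Interpolation was linear, between the two tested concentrations surrounding the appropriate level; five concentrations were tested over 48 hours in 96-well plates. GI50 is the concentration that inhibits growth by half. TGI is the concentration that stops growth completely.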
Key:
Experiment in all cases: DTP human tumour cell line panel, 48 h
COLO 205 colon = system: COLO 205 colon
MALME-3M melanoma = system: MALME-3M melanoma
U251 CNS = system: U251 CNS
RPMI-8226 leukemia = system: RPMI-8226 leukemia
A549 NSCLC = system: A549 NSCLC
SK-MEL-5 melanoma = system: SK-MEL-5 melanoma
NCI-H226 lung = system: NCI-H226 lung
HOP-62 NSCLC = system: HOP-62 NSCLC
K-562 leukemia = system: K-562 leukemia
UACC-257 melanoma = system: UACC-257 melanoma

SMILES	TGI (COLO 205 colon) [µM]	TGI (MALME-3M melanoma) [µM]	TGI (U251 CNS) [µM]	TGI (RPMI-8226 leukemia) [µM]	TGI (A549 NSCLC) [µM]	TGI (SK-MEL-5 melanoma) [µM]	TGI (NCI-H226 lung) [µM]	TGI (HOP-62 NSCLC) [µM]	TGI (K-562 leukemia) [µM]	TGI (UACC-257 melanoma) [µM]	GI50 (COLO 205 colon) [µM]	GI50 (MALME-3M melanoma) [µM]	GI50 (U251 CNS) [µM]	GI50 (RPMI-8226 leukemia) [µM]	GI50 (A549 NSCLC) [µM]	GI50 (SK-MEL-5 melanoma) [µM]	GI50 (NCI-H226 lung) [µM]	GI50 (HOP-62 NSCLC) [µM]	GI50 (K-562 leukemia) [µM]	GI50 (UACC-257 melanoma) [µM]
CC(CO)(CO)N=Cc1cc(I)cc(I)c1O	35.3	28.5	28.3	> 100	> 100	28.5	34.7	25	83.5	45.1	–	–	–	–	–	–	–	–	–	–
O=C(NNc1nc2c(F)cccc2n2cccc12)c1cnccn1	> 33.4	> 77.1	29.2	9.88	36	4.56	7	20	> 100	8.31	0.426	1.63	0.306	0.418	0.466	0.864	0.522	0.365	0.478	1.15
NC(CO)Cc1cnc[nH]1 (centres undefined)	> 100	> 100	> 100	> 100	> 100	> 100	> 100	> 100	> 100	> 100	> 100	> 100	> 100	> 100	> 100	> 100	> 100	> 100	> 100	–
CC1(C)N=C(N)N=C(N)N1c1ccc(CCCCc2ccc(S(=O)(=O)F)cc2)cc1	19.8	32.4	15	10.8	> 100	13.4	33.2	20.1	28.8	18.3	2.28	12.2	0.467	0.522	0.623	0.574	1.99	3.86	0.472	2.07
N#CC1(c2nc3ccccc3o2)C(=O)C(=O)N(C2C3CC4CC(C3)CC2C4)C(=O)C1=O (centres undefined)	> 100	> 100	> 100	> 100	> 100	> 100	> 100	> 100	> 100	> 100	–	–	–	–	–	–	–	–	–	–
CCOC(=O)C1=C(C)Nc2ccccc2S1	> 100	> 100	> 100	> 100	> 100	> 100	> 100	> 100	> 100	> 100	–	–	–	–	–	–	–	–	–	–
NC(N)=N/N=C(/c1ccccc1)c1ccc(F)cc1	0.841	22	5.21	21.6	> 34.6	4.66	14.5	13.1	27.7	32.8	0.267	0.368	0.337	0.558	0.512	0.316	1.06	0.85	0.38	2.94

From PubChem BioAssay (NCI)
